Measurements reported in patent US20100105098A1, “Methods of Identifying Disease Biomarkers in the Lense of the Eye” (priority 2006, published 2010).
Each block holds one compound with its values, some of them ahead of it.

Tests used:
cultured lens = details: bolus of 250 μM H2O2, incubated for 24 hrs
Experimental: FIG. 26: Cultured lens exposed to a bolus of 250 μM H2O2 incubated for 24 hrs.
Optimizing sensitivity for Raman. […] In previous in vitro studies Laser probes at 514 nm (82), and 647 nm (34) wavelengths were used for detection and characterization of Aβ-metal complex signature intensities in situ in lenses.

[1] = in vitro, cited from earlier work

light scattering indicative of lens opacification (cultured lens): increases over time
Compound: OO [H2O2, hydrogen peroxide]

Compound: Aβ1-40: human β-amyloid peptide, 1-40 amino acid form derived from APP
H2O2 produced relative to Aβ1-42 peptides ([1]; human peptides): ~50%

Compound: rat Aβ1-40: rat β-amyloid peptide 1-40, lacking two key metal chelating amino acids (DAEFGHDSGFEVRHQKLVFFAEDVGSNKGAIIGLMVGGVV; Amyloid-beta protein 40; UniProt P08592 672-711, looked up, fragment)
H2O2 produced relative to human Aβ1-40 ([1]; rat peptides): ~20%
